Measured values published in patent US9266835B2, “Quinoline derivatives useful as CB-1 inverse agonists” (JANSSEN PHARMACEUTICA NV, priority 2014, dated 2016).
Like-named read-outs stand apart in the source and are kept apart here.

What was measured:
[1] = Open field locomotor study in rats: plasma and brain concentrations 4 hrs post dosing; type: in vivo; conditions: male, Sprague Dawley, rat, oral
Excerpt: Male Sprague Dawley rats were ordered from Charles River (225-250 gm upon arrival). They were fed standard chow diet (Purina 5001) and housed 2 per cage. Male C57bl/6j mice were ordered from Charles River at 22-25 g and housed 3 per cage. They were fed standard chow (Purina 5001). All animals were housed in a temperature-controlled room with 12-hour light/dark cycle. Animals were given food and water ad libitum, except as noted.
(§1) Test compounds were formulated in 10% PEG400 and 10% solutol. Test compounds were administered by oral gavage (5 ml kg^−1).
Male SD rats were weighed and transferred to the Activity Chambers with access to water. After a 2-hr acclimation period, the rats were dosed with vehicle or test compound (@ 3 and 10 mg/kg). The Activity Chamber monitoring software program was initiated and automatically recorded rat activity in each chamber for a period of 4 hours. At the end of the 4 hour monitoring period, the software was stopped and the rats were removed from the activity chambers. The rats were anesthetized and blood samples were obtained via retro-orbital puncture to determine plasma concentration of compounds. The rats were immediately euthanized with CO2 and the brains removed, washed with PBS, frozen on dry ice and stored at −80° C. for receptor occupancy (RO) analysis.
Satellite groups of 3 rats were dosed with test compound at 3 mg/kg and 10 mg/kg respectively. Four hours later, the rats were anesthetized. Blood was collected from these rats and then they were perfused with 400 ml heparinized saline through the left ventricle of the heart. The brains were removed and homogenized in PBS (4 ml/gm tissue). The samples were submitted for determination of plasma and brain compound levels.
Compound #44 was tested in n=8 animals, according to the procedure as described above, with stereotypic counts as listed in Table BIO-5A; and plasma and brain drug levels as listed in Table BIO-5B, below.

[2] = Chronic DIO Mouse, first study (food intake, body weight, insulin tolerance test, glucose tolerance test, plasma insulin, fed blood glucose); type: in vivo; conditions: DIO mice; for Fed Blood Glucose / Plasma Insulin: mean (Std Err)
Protocol: Male 14-20-week old diet-induced obese mice were ordered from Taconic. Mice were started on a 60% fat diet (D12492, Research Diets, New Brunswick, N.J.) at 6 weeks of age. Mice were single-housed.
as §1
The test compound was formulated in 10% PEG400 and 10% solutol. DIO mice received vehicle, test compound (@ 1, 3 and 10 mg/kg) daily for 26 days. At the end of the experiment, the mice were euthanized and blood and tissues were collected.
Body weight and food weight (food intake) were monitored daily for days 1-5 and twice weekly thereafter. Fed blood glucose was measured weekly.
An insulin tolerance test (0.5 U/kg Humulin, ip) was performed on day 19 after a 4 hour food removal. Blood glucose was measured at 0, 15, 30, 60 and 120 minutes after insulin. […] Blood glucose was measured at 0, 30, 60 and 120 minutes after glucose challenge.
Blood glucose was measured from the tail vein with a Lifescan glucometer. Plasma insulin was measured with an ELISA or HTRF kit (Cisbio). Plasma parameters were measured with an Olympus clinical chemistry analyzer.
Compound #44 was tested according to the procedure as described above, with results as listed in Table BIO-4A through Table BIO4-G, below.

## O=c1cc(NC2CCN(S(=O)(=O)C(F)(F)F)CC2)c2cc(C(c3ccc(Cl)cc3)c3ccc(Cl)cc3)ccc2[nH]1 [Compound #44, 6-(bis(4-chlorophenyl)methyl)-4-(1-(trifluoromethylsulfonyl)piperidin-4-ylamino)quinolin-2(1H)-one]
[1]; brain, 3 mg/kg, read-out: Brain Mean ± Std Dev
  concentration at 4 h: 9.85 ng/g
[1]; brain, 10 mg/kg, read-out: Brain Mean ± Std Dev
  concentration at 4 h: 22.7 ng/g
[1]; plasma, 3 mg/kg, read-out: Plasma Mean ± Std Dev
  concentration at 4 h: 126 ng/mL
[1]; plasma, 10 mg/kg, read-out: Plasma Mean ± Std Dev
  concentration at 4 h: 501 ng/mL
[2]; 1 mg/kg daily oral, Day 0
  Fed Blood Glucose: 162.75 (13.02) mg/dL
[2]; 1 mg/kg daily oral, Day 18
  Fed Blood Glucose: 154.83 (5.98) mg/dL
[2]; 1 mg/kg daily oral
  Plasma Insulin: 2.60 (0.3) ng/mL
[2]; 1 mg/kg daily, Day 1
  Mean Body Weight (Std Err): 43.32 (0.45) Grams
[2]; 1 mg/kg daily, Day 2
  Mean Body Weight (Std Err): 43.28 (0.45) Grams
  Mean Daily Food Intake (Std Err): 2.84 (0.17) Grams
[2]; 1 mg/kg daily, Day 3
  Mean Body Weight (Std Err): 43.28 (0.42) Grams
  Mean Daily Food Intake (Std Err): 3.00 (0.09) Grams
[2]; 1 mg/kg daily, Day 4
  Mean Body Weight (Std Err): 43.06 (0.44) Grams
  Mean Daily Food Intake (Std Err): 2.76 (0.17) Grams
[2]; 1 mg/kg daily, Day 5
  Mean Body Weight (Std Err): 43.21 (0.50) Grams
  Mean Daily Food Intake (Std Err): 2.88 (0.12) Grams
[2]; 1 mg/kg daily, Day 8
  Mean Body Weight (Std Err): 42.62 (0.48) Grams
  Mean Daily Food Intake (Std Err): 2.50 (0.09) Grams
[2]; 1 mg/kg daily, Day 10
  Mean Body Weight (Std Err): 42.38 (0.51) Grams
  Mean Daily Food Intake (Std Err): 2.37 (0.07) Grams
[2]; 1 mg/kg daily, Day 11
  Mean Body Weight (Std Err): 42.07 (0.63) Grams
  Mean Daily Food Intake (Std Err): 2.28 (0.15) Grams
[2]; 1 mg/kg daily, day 19
  Insulin Tolerance Test, Blood Glucose AUC: 18543.8 mg·min/dL
[2]; 1 mg/kg daily, day 19, 0 min after insulin
  Insulin Tolerance Test Mean Blood Glucose (Std Err): 194.0 (6.1) mg/dL
[2]; 1 mg/kg daily, day 19, 15 min after insulin
  Insulin Tolerance Test Mean Blood Glucose (Std Err): 196.1 (18.6) mg/dL
[2]; 1 mg/kg daily, day 19, 30 min after insulin
  Insulin Tolerance Test Mean Blood Glucose (Std Err): 136.7 (10.4) mg/dL
[2]; 1 mg/kg daily, day 19, 60 min after insulin
  Insulin Tolerance Test Mean Blood Glucose (Std Err): 145.1 (11.5) mg/dL
[2]; 1 mg/kg daily, day 19, 120 min after insulin
  Insulin Tolerance Test Mean Blood Glucose (Std Err): 151.4 (7.8) mg/dL
[2]; 1 mg/kg daily, day 23
  Intraperitoneal Glucose Tolerance Test Blood Glucose AUC: 29525.6 mg·min/dL
[2]; 1 mg/kg daily, day 23, 0 min after glucose
  Intraperitoneal Glucose Tolerance Test Mean Blood Glucose (Std Err): 158.1 (6.9) mg/dL
[2]; 1 mg/kg daily, day 23, 30 min after glucose
  Intraperitoneal Glucose Tolerance Test Mean Blood Glucose (Std Err): 334.6 (14.5) mg/dL
[2]; 1 mg/kg daily, day 23, 60 min after glucose
  Intraperitoneal Glucose Tolerance Test Mean Blood Glucose (Std Err): 264.8 (19.7) mg/dL
[2]; 1 mg/kg daily, day 23, 120 min after glucose
  Intraperitoneal Glucose Tolerance Test Mean Blood Glucose (Std Err): 173.4 (13.5) mg/dL
[2]; 3 mg/kg daily oral, Day 0
  Fed Blood Glucose: 167.13 (7.59) mg/dL
[2]; 3 mg/kg daily oral, Day 18
  Fed Blood Glucose: 156.50 (7.39) mg/dL
[2]; 3 mg/kg daily oral
  Plasma Insulin: 2.26 (0.3) ng/mL
[2]; 3 mg/kg daily, Day 1
  Mean Body Weight (Std Err): 43.19 (0.39) Grams
[2]; 3 mg/kg daily, Day 2
  Mean Body Weight (Std Err): 42.86 (0.47) Grams
  Mean Daily Food Intake (Std Err): 2.71 (0.13) Grams
[2]; 3 mg/kg daily, Day 3
  Mean Body Weight (Std Err): 42.71 (0.56) Grams
  Mean Daily Food Intake (Std Err): 2.92 (0.13) Grams
[2]; 3 mg/kg daily, Day 4
  Mean Body Weight (Std Err): 42.20 (0.65) Grams
  Mean Daily Food Intake (Std Err): 2.44 (0.24) Grams
[2]; 3 mg/kg daily, Day 5
  Mean Body Weight (Std Err): 41.95 (0.70) Grams
  Mean Daily Food Intake (Std Err): 2.26 (0.20) Grams
